Laboratory results published in patent US7118885B2, “Nucleic acid encoding vitamin D receptor related polypeptide” (Pfizer Inc., priority 1997, dated 2006).

Key:
[1] = target: T1, VDRRγ (Homo sapiens, UniProt O75469); assay: VDRRγ reporter gene assay in transiently transfected Caco-2 (TC7) cells
T1 sequence (O75469 1-434): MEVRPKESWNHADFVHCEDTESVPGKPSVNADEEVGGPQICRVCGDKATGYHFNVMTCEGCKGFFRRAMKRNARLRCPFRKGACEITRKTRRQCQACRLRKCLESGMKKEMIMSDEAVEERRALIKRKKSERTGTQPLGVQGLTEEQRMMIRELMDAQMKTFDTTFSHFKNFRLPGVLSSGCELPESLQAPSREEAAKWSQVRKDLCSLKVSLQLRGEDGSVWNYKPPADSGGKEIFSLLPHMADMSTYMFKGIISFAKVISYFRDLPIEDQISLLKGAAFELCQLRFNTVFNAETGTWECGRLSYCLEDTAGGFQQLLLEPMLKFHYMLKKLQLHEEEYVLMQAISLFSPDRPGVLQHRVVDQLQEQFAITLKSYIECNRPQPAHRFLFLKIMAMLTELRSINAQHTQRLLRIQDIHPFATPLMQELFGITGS
Procedure: For identifying activators or ligands for VDRRγ, a library of substances structurally biased towards different classes of activators and ligands for nuclear receptors were tested. The activation of VDRRγ was analyzed in a reporter gene assay in transiently Caco-2 (TC7) cells (Carriere et al, 1994).

[2] = target: T2, VDRRg (Homo sapiens, UniProt O75469); assay: Similar reporter assays as used in WO 96/22390; type: cell-based; conditions: data not shown
T2 construct: expressed in transfected cells
T2 sequence (O75469 1-434): T1 sequence (O75469 1-434)

[3] = target: T3, GAL4-DBD/VDRRγ-LBD fusion protein (Homo sapiens, UniProt O75469); assay: Transient co-transfection of CV-1 cells, GAL4-DBD/VDRRγ-LBD with GAL4-luciferase reporter; type: cell-based; conditions: vitamin D3 1 μM, 48 hours
T3 construct: fusion proteins of the GAL4-DBD fused to the LBD of either the VDR or the VDRR; expressed in transfected cells; host or cells: CV-1 cells
T3 sequence (O75469 146-433 limits assumed): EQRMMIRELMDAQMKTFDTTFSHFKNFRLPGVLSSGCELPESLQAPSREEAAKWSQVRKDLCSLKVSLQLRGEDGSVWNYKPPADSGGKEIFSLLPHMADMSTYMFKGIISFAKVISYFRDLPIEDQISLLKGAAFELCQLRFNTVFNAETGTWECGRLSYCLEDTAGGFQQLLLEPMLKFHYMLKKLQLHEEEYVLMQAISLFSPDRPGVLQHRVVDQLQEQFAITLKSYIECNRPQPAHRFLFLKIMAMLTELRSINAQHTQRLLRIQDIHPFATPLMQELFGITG
Procedure: (§1) Transient transfections were performed to analyze if vitamin D3 activate the VDRRγ polypeptide. To this end, transient co-tansfections of CV-1 cells were performed with expression plasmids encoding fusion proteins of the GAL4-DBD fused to the LBD of either the VDR or the VDRR together with a reporter-plasmid containing five GAL4 responsive elements upstream of the luciferase gene. After transfection, cells were treated with vehicle (DMSO) alone or with vitamin D3 for 48 hours followed by harvesting of the cells and measurement of the luciferase activity in cell extracts.

[4] = target: T4, GAL4-DBD/VDR-LBD fusion protein (Homo sapiens, UniProt P11473); assay: Transient co-transfection of CV-1 cells, GAL4-DBD/VDR-LBD with GAL4-luciferase reporter; type: cell-based; conditions: vitamin D3 1 μM, 48 hours
T4 construct: fusion proteins of the GAL4-DBD fused to the LBD of either the VDR or the VDRR; expressed in transfected cells; host or cells: CV-1 cells
T4 sequence (P11473 127-423 limits assumed): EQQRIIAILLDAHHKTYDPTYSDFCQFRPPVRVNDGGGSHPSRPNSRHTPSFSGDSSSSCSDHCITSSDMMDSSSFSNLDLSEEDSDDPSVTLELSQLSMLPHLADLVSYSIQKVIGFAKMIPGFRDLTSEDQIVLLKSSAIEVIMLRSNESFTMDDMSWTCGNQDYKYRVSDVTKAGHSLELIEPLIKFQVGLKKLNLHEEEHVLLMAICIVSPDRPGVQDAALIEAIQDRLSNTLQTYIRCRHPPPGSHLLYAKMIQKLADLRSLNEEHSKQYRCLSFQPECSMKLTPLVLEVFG
Procedure: as §1

SMILES: CC(=O)[C@H]1CC[C@H]2[C@@H]3CC[C@H]4CC(=O)CC[C@]4(C)[C@H]3CC[C@]12C [5α-pregnane-3,20-dione]
- activation of VDRRγ (in words) ([1]; Caco-2 (TC7) cells, FIG. 10): did not activate

SMILES: CC(=O)[C@H]1CC[C@H]2[C@@H]3CC[C@@H]4CC(=O)CC[C@]4(C)[C@H]3CC[C@]12C [5β-pregnane-3,20-dione]
- activation of VDRRγ (in words) ([1]; Caco-2 (TC7) cells, FIG. 10): efficient activation

SMILES: CC(=O)[C@H]1[C@H](C#N)C[C@H]2[C@@H]3CC=C4C[C@@H](O)CC[C@]4(C)[C@H]3CC[C@@]21C [PCN, pregnenolone 16α-carbonitrile]
- activation of VDRRγ (in words) ([1]; Caco-2 cells, 10 μM, FIG. 11): not activated
- activation of human VDRRγ polypeptides (summary statement) ([1]; VDRRγ-1 and VDRRγ-2, no concentration given): not activated

SMILES: CC#C[C@]1(O)CC[C@H]2[C@@H]3CCC4=CC(=O)CCC4=C3[C@@H](c3ccc(N(C)C)cc3)C[C@@]21C [RU486]
- increase in VDRRγ mediated reporter gene activity [1]: slight increase (two fold)

SMILES: CCCCOC(=O)c1ccc(N)cc1 [butyl 4-NH2 Benzoate]
- activation of VDRRg [2]: did not activate

SMILES: C=C1CC[C@H](O)C/C1=C/C=C1\CCC[C@]2(C)[C@@H]([C@H](C)CCCC(C)C)CC[C@@H]12 [vitamin D3]
- transactivation of GAL4-DBD/VDRRγ-LBD (luciferase activity) [3]: not
- transactivation of GAL4-DBD/VDR-LBD (luciferase activity) [4]: transactivate
